Each compound was assayed on Ctenocephalides felis, Diabrotica undecimpunctata, Nephotettix cincticeps or Rhipicephalus sanguineus (assay: Pooled statement: active in one or more of the above tests (Methods A to E)). Conditions: active = reaching the threshold of Method A, B, C, D or E; test not given per compound.
Type: in vivo
Experimental: The following representative test procedures, using compounds of the invention, were conducted to determine the parasiticidal and pesticidal activity of compounds of the invention.
A test container was filled with 10 adults of Ctenocephalides felis. A glass cylinder was closed on one end with parafilm and placed on top of the test container. The test compound solution was then pipetted into bovine blood and added to the glass cylinder. The treated Ctenocephalides felis were held in this artificial dog test (blood 37° C., 40-60% relative humidity; Ctenocephalides felis 20-22° C., 40-60% relative humidity) and assessment performed at 24 and 48 hours after application. Active compounds gave at least 90% control of Ctenocephalides felis at a test concentration of 5 ppm or less.
Two days before application, seeds of maize were soaked in water under warm conditions to elicit fast germination. One day before application, eggs of Diabrotica undecimpunctata were transferred to one half of a Japanese filter paper placed in a plastic petri dish. Afterwards, a sprouted maize seed was placed on a moistened pad beside the filter paper. Three drops of 200 microliters of test compound solution were carefully pipetted onto the egg. The remainder of the solution was placed on the maize and then the Petri dish was closed. The treated eggs in the Petri dishes were held in a climate chamber for 6 days. The compound efficacy (percentage of dead eggs and/or larvae in comparison to untreated control) was assessed 6 days after application using a binocular microscope.
Active compounds gave at least 90% control of Diabrotica undecimpunctata at a test concentration of 10 ppm.
The leaves of 12 rice plants having a stem length of 8 cm were dipped for 5 seconds into an aqueous solution of the formulated test compound. After the solution had run off, the rice plants treated in this manner were placed in a Petri dish and populated with about 20 larvae (L3 stage) of Nephotettix cincticeps. The Petri dish was closed and then stored in a climate chamber (16 hours of light/day, 25° C., 40-60% relative humidity). After 6 days storage, the percentage mortality of leafhopper larvae was determined.
Active compounds gave at least 98% mortality of Nephotettix cinciceps larvae at a test concentration of 100 ppm.
Solutions of the test compounds were dropped onto filter paper, dried and the filter paper placed into test tubes and infested with 10 adults of Ctenocephalides felis. The treated Ctenocephalides felis were held in a climate chamber (26° C., 80% RH) and the percentage efficacy assessed 24 hours and 48 hours after application in comparison with the untreated control.
Active compounds gave at least 70% contact control of Ctenocephalides felis at a test concentration of 1000 ppm.
Solutions of the test compounds were dropped onto filter paper, dried and the filter paper placed into test tubes and infested with 20-30 larvae (L1) of Rhipicephalus sanguineus and the tubes closed with a clip. The treated Rhipicephalus sanguineus were held in a climate chamber (25° C., 90% RH) and the percentage efficacy assessed 24 hours after application in comparison with the untreated control. Active compounds gave at least 70% contact control of Rhipicephalus sanguineus at a test concentration of 100 ppm.

SMILES	active in one or more of the above tests
CN(c1c(SC(F)(F)F)c(C#N)nn1-c1c(Cl)cc(C(F)(F)F)cc1Cl)S(=O)(=O)c1ccc(F)cc1 [Compound 5-9]	active
CN(c1c(S(=O)(=O)C(F)(F)F)c(C#N)nn1-c1c(Cl)cc(C(F)(F)F)cc1Cl)S(=O)(=O)Cc1ccc(F)cc1 [Compound 2-121]	active
CN(c1c([S+]([O-])C(F)(F)F)c(C#N)nn1-c1c(Cl)cc(C(F)(F)F)cc1Cl)S(=O)(=O)Cc1cc(C(F)(F)F)cc(C(F)(F)F)c1 (centres unmarked) [Compound 2-94]	active
COc1ccc(S(=O)(=O)N(C)c2c(SC(F)(F)F)c(C#N)nn2-c2c(Cl)cc(C(F)(F)F)cc2Cl)cc1 [Compound 5-22]	active
CN(c1c(S(=O)(=O)C(F)(F)F)c(C#N)nn1-c1c(Cl)cc(C(F)(F)F)cc1Cl)S(=O)(=O)Cc1ccc(C(F)(F)F)cc1 [Compound 2-128]	active
CN(c1c([S+]([O-])C(F)(F)F)c(C#N)nn1-c1c(Cl)cc(C(F)(F)F)cc1Cl)S(=O)(=O)Cc1ccccc1 (centres unmarked) [Compound 2-16, 1-(2,6-Dichloro-4-trifluoromethylphenyl)-3-cyano-5-(N-benzylsulfonyl-N-methylamino)-4-trifluoromethylsulfinylpyrazole]	active
CN(c1c(SC(F)(F)F)c(C#N)nn1-c1c(Cl)cc(C(F)(F)F)cc1Cl)S(=O)(=O)c1ccc(C(C)(C)C)cc1 [Compound 5-38]	active
CN(c1c([S+]([O-])C(F)(F)F)c(C#N)nn1-c1c(Cl)cc(C(F)(F)F)cc1Cl)S(=O)(=O)c1cccc2ccccc12 (centres unmarked) [Compound 5-89]	active
CN(c1c(SC(F)(F)F)c(C#N)nn1-c1c(Cl)cc(C(F)(F)F)cc1Cl)S(=O)(=O)Cc1ccc(F)cc1 [Compound 2-51]	active
CN(c1c([S+]([O-])C(F)(F)F)c(C#N)nn1-c1c(Cl)cc(C(F)(F)F)cc1Cl)S(=O)(=O)c1cc(Cl)cc(Cl)c1 (centres unmarked) [Compound 5-87]	active
CN(c1c([S+]([O-])C(F)(F)F)c(C#N)nn1-c1c(Cl)cc(C(F)(F)F)cc1Cl)S(=O)(=O)c1cccc(Cl)c1 (centres unmarked) [Compound 5-47]	active
CN(c1c([S+]([O-])C(F)(F)F)c(C#N)nn1-c1c(Cl)cc(C(F)(F)F)cc1Cl)S(=O)(=O)c1ccc(-c2ccc(F)cc2)cc1 (centres unmarked) [Compound 5-151]	active
Cc1cccc(S(=O)(=O)N(C)c2c(SC(F)(F)F)c(C#N)nn2-c2c(Cl)cc(C(F)(F)F)cc2Cl)c1 [Compound 5-30]	active
CN(c1c(SC(F)(F)F)c(C#N)nn1-c1c(Cl)cc(C(F)(F)F)cc1Cl)S(=O)(=O)Cc1cccc(C(F)(F)F)c1 [Compound 2-57]	active
CC(C)S(=O)(=O)N(C)c1c([S+]([O-])C(F)(F)F)c(C#N)nn1-c1c(Cl)cc(C(F)(F)F)cc1Cl (centres unmarked) [Compound 1-85]	active
COC(=O)c1ccc(I)cc1S(=O)(=O)N(C)c1c([S+]([O-])C(F)(F)F)c(C#N)nn1-c1c(Cl)cc(C(F)(F)F)cc1Cl (centres unmarked) [Compound 5-86]	active
Cc1cc(C)c(S(=O)(=O)N(C)c2c(SC(F)(F)F)c(C#N)nn2-c2c(Cl)cc(C(F)(F)F)cc2Cl)c(C)c1 [Compound 5-40]	active
CN(c1c([S+]([O-])C(F)(F)F)c(C(N)=S)nn1-c1c(Cl)cc(C(F)(F)F)cc1Cl)S(=O)(=O)Cc1ccccc1 (centres unmarked) [Compound 7-32]	active
CN(c1c(SC(F)(F)F)c(C#N)nn1-c1c(Cl)cc(C(F)(F)F)cc1Cl)S(=O)(=O)c1cccc(C(F)(F)F)c1 [Compound 5-15]	active
C=CS(=O)(=O)N(C)c1c([S+]([O-])C(F)(F)F)c(C#N)nn1-c1c(Cl)cc(C(F)(F)F)cc1Cl (centres unmarked) [Compound 1-97]	active
